Activity calls are given as the source filed them.
Legend:
Steroidogenic factor 1 = Steroidogenic factor 1 (Homo sapiens, UniProt Q13285); assay: Counterscreen for inverse agonists of the liver receptor homolog-1 (LRH-1; NR5A2): Luminescence-based cell-based high throughput dose response assay to identify inverse agonists of the Steroidogenic Factor 1 Nuclear Receptor (SF1; NR5A1).; assay type: functional
[1] = nonselective StAR promoter luciferase inhibitors – cell-based, luminescence, luciferase reporter, counter-screen for LRH-1 inverse agonist project, dose response (AID 651969); assay type: functional
[2] = target: Nuclear receptor subfamily 5 group A member 2 (Homo sapiens, UniProt O00482); assay type: functional, cell-based;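 also: HEK293T cells transfected with LRH-1 and a StAR promoter luciferase reporter; potency for inhibitors that lower LRH-1 driven reporter light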
[3] = target: Adenosylmethionine-8-amino-7-oxononanoate aminotransferase (Mycobacterium tuberculosis, UniProt P9WQ81); assay: Mycobacterium tuberculosis BioA enzyme inhibitor Measured in Biochemical System Using Plate Reader - 2163-02_Inhibitor_Dose_CherryPick_Activity.; assay type: functional, Mycobacterium tuberculosis UT205
[4] = cAMP pathway inhibition in counterscreen cell line – TR-FRET cAMP detection, counter-screen for MC4R biased antagonist project, dose response (AID 602305); assay type: functional, cell-based;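 also: U2OS cells stimulated with forskolin near its EC80 as the cAMP inducer; potency is for inhibition of forskolin-stimulated cAMP signaling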
Melanocortin receptor 4 = Melanocortin receptor 4 (Homo sapiens, UniProt P32245); assay: inhibitors of MC4R cAMP signaling – cell-based, TR-FRET, biased antagonists, dose response (AID 602298); assay type: functional;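 also: antagonist potency against agonist-stimulated cAMP production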
[5] = target: T1, Low molecular weight phosphotyrosine protein phosphatase (Homo sapiens, UniProt P24666); assay type: functional; conditions: read-out: IC50_Mean
T1 sequence (P24666 whole entry): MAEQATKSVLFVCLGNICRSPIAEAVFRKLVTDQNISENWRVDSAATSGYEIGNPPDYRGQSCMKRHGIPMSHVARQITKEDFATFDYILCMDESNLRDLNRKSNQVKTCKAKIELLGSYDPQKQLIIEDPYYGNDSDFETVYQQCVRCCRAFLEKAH

[6] = target: T1, Low molecular weight phosphotyrosine protein phosphatase; assay type: functional; conditions: read-out: IC50_Mean; remark: listed apart in the source
[7] = target: T2, Latent membrane protein 1 (Human herpesvirus 4 (strain B95-8), UniProt P03230); assay: LMP1 TES1 pathway selectivity over dsRED control – imaging, HEK293T, dual-color eGFP/dsRED, cherry-picks, selectivity assay for LMP1 NF-kB inhibitor project, dose response (AID 588398); assay type: functional, cell-based
T2 sequence (P03230 whole entry): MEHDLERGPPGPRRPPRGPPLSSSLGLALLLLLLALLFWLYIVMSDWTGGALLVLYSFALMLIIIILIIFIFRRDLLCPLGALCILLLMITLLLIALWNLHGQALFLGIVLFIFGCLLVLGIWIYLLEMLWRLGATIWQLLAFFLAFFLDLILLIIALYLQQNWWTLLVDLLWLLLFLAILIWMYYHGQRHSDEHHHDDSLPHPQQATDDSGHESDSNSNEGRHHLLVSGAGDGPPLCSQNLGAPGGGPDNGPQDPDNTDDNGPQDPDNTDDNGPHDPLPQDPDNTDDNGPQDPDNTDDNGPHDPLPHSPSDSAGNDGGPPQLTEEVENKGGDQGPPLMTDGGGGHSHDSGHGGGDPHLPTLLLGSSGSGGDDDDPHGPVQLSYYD

HEK293 = assay: EBV LMP1 TES2 canonical NF-kB signalling blockers – cell-based, HEK293, luciferase, cherry-pick, dose response (AID 588343); assay type: functional; conditions: Homo sapiens
[8] = target: T3, Replicative DNA helicase DnaB (Mycobacterium tuberculosis, UniProt P9WMR3); assay: DnaB intein splicing inhibitors, dose response, biochemical, cell-free fluorescence (AID 449749); assay type: functional
T3 sequence (P9WMR3 whole entry): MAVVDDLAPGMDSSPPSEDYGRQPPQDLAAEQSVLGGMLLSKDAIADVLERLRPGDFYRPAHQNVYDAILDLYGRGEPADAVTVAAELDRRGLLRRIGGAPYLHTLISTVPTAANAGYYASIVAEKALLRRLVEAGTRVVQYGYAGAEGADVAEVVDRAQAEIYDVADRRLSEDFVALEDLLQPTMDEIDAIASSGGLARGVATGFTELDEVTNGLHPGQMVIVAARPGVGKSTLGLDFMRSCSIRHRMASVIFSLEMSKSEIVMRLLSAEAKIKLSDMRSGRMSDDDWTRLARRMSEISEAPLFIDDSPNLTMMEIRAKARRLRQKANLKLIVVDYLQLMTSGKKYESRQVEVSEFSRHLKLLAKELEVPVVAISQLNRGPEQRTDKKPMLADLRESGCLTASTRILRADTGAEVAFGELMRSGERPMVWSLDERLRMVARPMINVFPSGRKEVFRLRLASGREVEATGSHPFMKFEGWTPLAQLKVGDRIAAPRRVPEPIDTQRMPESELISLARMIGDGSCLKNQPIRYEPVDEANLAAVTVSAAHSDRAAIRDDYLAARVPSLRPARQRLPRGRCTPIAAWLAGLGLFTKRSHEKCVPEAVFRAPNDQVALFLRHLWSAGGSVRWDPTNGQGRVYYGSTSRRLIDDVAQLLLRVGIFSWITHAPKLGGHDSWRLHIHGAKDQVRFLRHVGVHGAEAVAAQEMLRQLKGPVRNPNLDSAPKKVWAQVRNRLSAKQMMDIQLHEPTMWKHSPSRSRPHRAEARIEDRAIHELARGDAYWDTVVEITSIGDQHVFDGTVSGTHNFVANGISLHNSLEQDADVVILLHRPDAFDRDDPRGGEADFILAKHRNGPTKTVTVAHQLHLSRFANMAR

[9] = target: Heat shock protein HSP 90-alpha (Homo sapiens, UniProt P07900); assay type: functional, organism-based
BJ [10] = assay: growth inhibition of engineered Ras-driven BJ cells – cell-based, alamar blue fluorescence, cherrypicked samples, dose response (AID 2631); assay type: functional; conditions: Homo sapiens;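 also: confirmatory dose-response assay in RAS-dependent BJ fibroblasts engineered with TERT, LT and ST, with cytotoxicity read by fluorescence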
BJ [11] = assay: BJ-TERT-LT-ST fibroblast viability loss – cell-based, RAS-independent, luminescence, dose response (AID 1935); assay type: functional; conditions: Homo sapiens;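 also: BJ fibroblasts immortalized with TERT plus LT and ST oncogenes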
[12] = Fluorescence-based cell-based high throughput dose response assay for inhibitors of the interaction of nucleotide-binding oligomerization domain containing 2 (NOD2) and the receptor-interacting serine-threonine kinase 2 (RIPK2).; assay type: functional; conditions: Homo sapiens
Protein RecA = target: T4, Protein RecA (Mycobacterium tuberculosis, UniProt P9WHJ3); assay: Fluorescence Cell-Free Homogeneous Dose Retest to Identify Inhibitors of RecA-Intein Splicing Activity. [Related pubchem assays (depositor defined):AID2097, AID2223, AID489010, AID492950]; assay type: functional
T4 sequence (P9WHJ3 whole entry): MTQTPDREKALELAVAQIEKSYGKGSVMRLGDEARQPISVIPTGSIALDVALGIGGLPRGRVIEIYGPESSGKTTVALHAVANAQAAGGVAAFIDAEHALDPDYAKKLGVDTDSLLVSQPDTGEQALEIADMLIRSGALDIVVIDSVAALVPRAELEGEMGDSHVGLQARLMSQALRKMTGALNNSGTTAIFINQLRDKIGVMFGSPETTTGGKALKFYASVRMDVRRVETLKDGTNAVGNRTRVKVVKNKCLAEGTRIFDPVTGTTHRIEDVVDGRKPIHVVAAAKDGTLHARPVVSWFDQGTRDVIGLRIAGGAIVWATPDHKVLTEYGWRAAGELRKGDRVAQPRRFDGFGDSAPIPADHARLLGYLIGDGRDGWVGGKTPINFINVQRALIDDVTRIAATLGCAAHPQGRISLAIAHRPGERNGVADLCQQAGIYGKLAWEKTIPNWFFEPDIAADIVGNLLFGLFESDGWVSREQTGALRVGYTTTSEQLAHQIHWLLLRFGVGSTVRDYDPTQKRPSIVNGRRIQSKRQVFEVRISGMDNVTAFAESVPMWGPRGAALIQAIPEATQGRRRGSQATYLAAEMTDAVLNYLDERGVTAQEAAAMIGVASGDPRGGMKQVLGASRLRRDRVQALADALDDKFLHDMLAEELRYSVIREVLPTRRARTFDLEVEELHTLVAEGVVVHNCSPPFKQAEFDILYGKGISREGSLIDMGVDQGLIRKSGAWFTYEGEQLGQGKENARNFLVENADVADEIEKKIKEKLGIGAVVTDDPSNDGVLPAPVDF

[13] = DRD fibroblast viability loss – cell-based, non-viral oncogenic, luminescence, dose response (AID 1934); assay type: functional; conditions: Homo sapiens
BJ [14] = assay: BJ-TERT fibroblast viability loss – cell-based, RAS-independent, luminescence, dose response (AID 1933); assay type: functional; conditions: Homo sapiens
BJ [15] = assay: cells; assay type: functional, cell-based; conditions: Homo sapiens

Adenosylmethionine-8-amino-7-oxononanoate aminotransferase, sequence (P9WQ81 whole entry): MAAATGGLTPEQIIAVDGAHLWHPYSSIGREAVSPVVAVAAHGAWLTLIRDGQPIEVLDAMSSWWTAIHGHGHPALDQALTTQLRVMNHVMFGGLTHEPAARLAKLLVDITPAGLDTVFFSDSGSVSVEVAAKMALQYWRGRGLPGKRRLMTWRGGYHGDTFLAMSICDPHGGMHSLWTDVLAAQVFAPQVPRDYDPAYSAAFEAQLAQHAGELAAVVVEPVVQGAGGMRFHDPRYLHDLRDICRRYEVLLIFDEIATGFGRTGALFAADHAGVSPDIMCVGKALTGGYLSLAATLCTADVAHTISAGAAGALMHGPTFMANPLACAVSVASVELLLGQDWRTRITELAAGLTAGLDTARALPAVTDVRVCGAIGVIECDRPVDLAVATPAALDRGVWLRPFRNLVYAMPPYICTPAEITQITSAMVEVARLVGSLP
Steroidogenic factor 1, sequence (Q13285 whole entry): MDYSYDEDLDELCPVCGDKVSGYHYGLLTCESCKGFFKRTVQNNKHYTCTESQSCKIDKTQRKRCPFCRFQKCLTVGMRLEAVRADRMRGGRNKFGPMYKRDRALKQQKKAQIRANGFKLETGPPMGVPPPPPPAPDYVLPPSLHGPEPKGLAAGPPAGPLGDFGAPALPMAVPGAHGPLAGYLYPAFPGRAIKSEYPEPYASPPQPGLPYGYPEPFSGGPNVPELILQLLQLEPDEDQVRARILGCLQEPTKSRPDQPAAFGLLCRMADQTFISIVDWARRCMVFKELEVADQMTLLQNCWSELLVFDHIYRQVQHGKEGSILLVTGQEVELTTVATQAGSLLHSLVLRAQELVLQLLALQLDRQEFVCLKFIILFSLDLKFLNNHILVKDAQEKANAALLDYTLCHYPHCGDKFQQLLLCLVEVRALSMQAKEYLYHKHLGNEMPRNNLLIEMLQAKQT
Nuclear receptor subfamily 5 group A member 2, sequence (O00482 whole entry): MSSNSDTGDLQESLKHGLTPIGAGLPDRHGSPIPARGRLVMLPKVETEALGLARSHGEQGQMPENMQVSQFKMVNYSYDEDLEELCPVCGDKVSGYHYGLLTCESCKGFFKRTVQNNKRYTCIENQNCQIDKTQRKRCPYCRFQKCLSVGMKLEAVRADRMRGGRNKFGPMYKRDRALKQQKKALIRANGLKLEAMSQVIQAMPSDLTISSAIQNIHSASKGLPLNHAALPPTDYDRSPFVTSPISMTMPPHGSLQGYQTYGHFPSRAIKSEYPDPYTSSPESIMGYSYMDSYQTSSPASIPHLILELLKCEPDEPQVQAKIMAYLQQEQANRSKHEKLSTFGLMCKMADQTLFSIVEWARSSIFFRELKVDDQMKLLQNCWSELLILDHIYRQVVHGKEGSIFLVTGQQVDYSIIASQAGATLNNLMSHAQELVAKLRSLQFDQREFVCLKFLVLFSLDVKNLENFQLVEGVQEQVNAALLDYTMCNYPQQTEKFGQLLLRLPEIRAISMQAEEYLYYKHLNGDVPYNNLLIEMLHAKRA
Melanocortin receptor 4, sequence (P32245 whole entry): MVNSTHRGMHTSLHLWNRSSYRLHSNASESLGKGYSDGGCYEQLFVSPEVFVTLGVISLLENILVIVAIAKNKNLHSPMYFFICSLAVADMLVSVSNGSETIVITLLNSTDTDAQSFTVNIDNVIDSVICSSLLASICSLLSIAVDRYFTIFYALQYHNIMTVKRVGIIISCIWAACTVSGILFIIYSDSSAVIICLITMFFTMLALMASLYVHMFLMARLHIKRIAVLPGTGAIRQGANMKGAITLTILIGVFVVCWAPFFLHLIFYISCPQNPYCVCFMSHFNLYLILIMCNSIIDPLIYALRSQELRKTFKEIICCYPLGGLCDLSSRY

SMILES: O=C(CCl)NCCCN(C(=O)C(Cl)Cl)c1ccc([N+](=O)[O-])cc1
- IC50 (Steroidogenic factor 1): 4.97 µM (active)
- IC50 [1]: 18.8 µM (inactive)
- IC50 [2]: 7.45 µM (active)

SMILES: O=C(Nc1ccc2c(c1)[C@H]1C[C@@H](CC(=O)N3CCc4ccccc4C3)O[C@@H](CO)[C@H]1O2)c1cccnc1
- AC50 [3]: 10.5 µM (active)

SMILES: O=C1c2cccc([N+](=O)[O-])c2C(=O)N1c1ccccc1
- IC50 [4]: > 64.6 µM (inactive)
- IC50 (Melanocortin receptor 4): > 64.6 µM (inactive)

SMILES: COCCNc1nc(NCc2cc(-c3ccc(OC)cc3)no2)c2sccc2n1
- IC50 [5]: 9.53 µM (active)
- IC50 [6]: 23.3 µM (inactive)

SMILES: CCOC(=O)CC(NC(=O)C(Cc1ccc(N(CCCl)CCCl)cc1)NC(C)=O)C(=O)OCC (stereo unspecified)
- AC50 [7]: 16.2 µM (active)
- AC50 (HEK293): 1.65 µM (active)

SMILES: O=[N+]([O-])c1cc(Br)c(Nc2ccccc2)c([N+](=O)[O-])c1
- AC50 [8]: 5.68 µM (active)
- AC50 [9]: 7.5 µM (active)
- EC50 (BJ [10]): 1.37 µM (active)
- EC50 (BJ [11]): 28.3 µM (inconclusive)
- IC50 [12]: 2.12 µM (active)
- EC50 (Protein RecA): 5.15 µM (active)
- EC50 [13]: 4.5 µM (active)
- EC50 (BJ [14]): 5.53 µM (inconclusive)
- EC50 (BJ [15]): 2.57 µM (inconclusive)

SMILES: O=C1CSC(=S)N1Cc1ccccc1
- AC50 [7]: 119 µM (active)
- AC50 (HEK293): 2.11 µM (active)

From ChEMBL document CHEMBL1201862, “PubChem BioAssay data set” (2004)
